Patent US8633245B2, “PAI-1 inhibitor” (Institute of Medicinal Molecular Design, Inc., priority 2008, dated 2014)
Where two headings read alike, the source gives them in different places.

Molecular target: T1, recombinant human PAI-1 (Homo sapiens, UniProt P05121)
T1 construct: purchased Molecular Innovations, Inc
Assay: Test Example 2: human PAI-1 inhibitory activity (tPA fluorogenic substrate, pH 7.4 HEPES buffer)
Type: biochemical
Conditions: for inhibition at 3 µM: read-out: Inhibition Rate of PAI-1 Activity (%)
Description: 0.1 M HEPES, 0.1 M NaCl. 1 mM EDTA. 0.1% Polyethylene glycol 8,000 (Hampton Research Corporation),
2 mM Dimethyldecylphoshine oxide [Apo-10] (Fluka Corporation)

[1] = human PAI-1, compound concentration 1 μM
[2] = human PAI-1, compound concentration 3 μM
[3] = human PAI-1, compound concentration 10 μM
[4] = human PAI-1, compound concentration 25 μM
[5] = human PAI-1, compound concentration 0.1 μM
[6] = human PAI-1, compound concentration 0.3 μM
[7] = human PAI-1, calculated from the inhibition rates

T1 sequence (P05121 24-402): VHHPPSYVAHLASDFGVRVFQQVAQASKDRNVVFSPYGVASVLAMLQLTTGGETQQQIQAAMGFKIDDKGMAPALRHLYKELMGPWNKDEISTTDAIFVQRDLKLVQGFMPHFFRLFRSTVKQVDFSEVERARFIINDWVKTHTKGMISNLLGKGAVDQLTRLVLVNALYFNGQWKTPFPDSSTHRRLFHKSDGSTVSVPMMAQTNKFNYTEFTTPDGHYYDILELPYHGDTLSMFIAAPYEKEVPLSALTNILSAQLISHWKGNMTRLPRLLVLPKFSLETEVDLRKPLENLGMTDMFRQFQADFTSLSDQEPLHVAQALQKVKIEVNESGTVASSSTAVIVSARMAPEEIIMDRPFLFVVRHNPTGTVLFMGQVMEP

## CC(C)(C)c1ccc(COc2ccc(NS(=O)(=O)c3ccc(OC(F)(F)F)cc3)cc2CCC(=O)O)cc1 [Compound 415]
[1]
  Inhibition Rate of PAI-1 Activity (%): 41%
[2]
  Inhibition Rate of PAI-1 Activity (%): 98%
[3]
  Inhibition Rate of PAI-1 Activity (%): >99%
[4]
  Inhibition Rate of PAI-1 Activity (%): >99%

## CCCCc1ccc(Oc2cc(-c3ccc(OC(F)(F)F)cc3)ccc2OCC(=O)O)cc1 [Compound 481]
[5]
  Inhibition Rate of PAI-1 Activity (%): 19%
[6]
  Inhibition Rate of PAI-1 Activity (%): 16%
[1]
  Inhibition Rate of PAI-1 Activity (%): 70%
[2]
  Inhibition Rate of PAI-1 Activity (%): >99%

## CC(C)(C)c1ccc(-c2ccc(CCC(=O)O)c(Oc3ccc(OC(F)(F)F)cc3)c2)cc1 [Compound 480]
[5]
  Inhibition Rate of PAI-1 Activity (%): 17%
[6]
  Inhibition Rate of PAI-1 Activity (%): 22%
[1]
  Inhibition Rate of PAI-1 Activity (%): 80%
[2]
  Inhibition Rate of PAI-1 Activity (%): >99%

## CC(C)(C)c1ccc(Oc2cc(-c3ccc(OC(F)(F)F)cc3)ccc2CC(=O)O)cc1 [Compound 334]
[7]
  IC50: 1910 nM

## CCCCCOc1ccc(-c2ccc(OC(F)(F)F)cc2)cc1N(CCCCc1ccc(F)cc1)C(=O)C(=O)O [Compound 382]
  IC50: 650 nM

## CCCCc1ccc(-c2ccc(OCC(=O)O)c(Oc3ccc(C(C)(C)C)cc3)c2)cc1 [Compound 443]
[5]
  Inhibition Rate of PAI-1 Activity (%): 7%
[6]
  Inhibition Rate of PAI-1 Activity (%): 8%
[1]
  Inhibition Rate of PAI-1 Activity (%): 76%
[2]
  Inhibition Rate of PAI-1 Activity (%): >99%

## O=C(O)CCc1ccc(-c2ccc(OC(F)(F)F)cc2)cc1Oc1ccc2ccccc2c1 [Compound 476]
[5]
  Inhibition Rate of PAI-1 Activity (%): 0%
[6]
  Inhibition Rate of PAI-1 Activity (%): 3%
[1]
  Inhibition Rate of PAI-1 Activity (%): 65%
[2]
  Inhibition Rate of PAI-1 Activity (%): >99%

## CCCCC(C(=O)O)N(Cc1ccc(C(C)(C)C)cc1)c1ccc(-c2ccc(OC(F)(F)F)cc2)cc1 (centres unmarked) [Compound 642]
[5]
  Inhibition Rate of PAI-1 Activity (%): 16%
[6]
  Inhibition Rate of PAI-1 Activity (%): 57%
[1]
  Inhibition Rate of PAI-1 Activity (%): 94%
[2]
  Inhibition Rate of PAI-1 Activity (%): 93%

## CC(C)(C)c1ccc(-c2ccc(CN(C(=O)C(=O)O)c3ccc(OC(F)(F)F)cc3)cc2)cc1 [Compound 615]
[1]
  Inhibition Rate of PAI-1 Activity (%): 43%
[2]
  Inhibition Rate of PAI-1 Activity (%): 98%
[3]
  Inhibition Rate of PAI-1 Activity (%): >99%
[4]
  Inhibition Rate of PAI-1 Activity (%): 95%

## CCCCCOc1cc(N(CCCCc2ccccc2)C(=O)C(=O)O)ccc1-c1ccc(OC(F)(F)F)cc1 [Compound 654]
[5]
  Inhibition Rate of PAI-1 Activity (%): 4%
[6]
  Inhibition Rate of PAI-1 Activity (%): 19%
[1]
  Inhibition Rate of PAI-1 Activity (%): >99%
[2]
  Inhibition Rate of PAI-1 Activity (%): >99%

## Cc1cc(C)cc(-c2ccc(/C=C/C(=O)O)c(Oc3ccc(C(C)(C)C)cc3)c2)c1 [Compound 496]
[5]
  Inhibition Rate of PAI-1 Activity (%): 4%
[6]
  Inhibition Rate of PAI-1 Activity (%): 9%
[1]
  Inhibition Rate of PAI-1 Activity (%): 85%
[2]
  Inhibition Rate of PAI-1 Activity (%): >99%

## CC(C)(C)c1ccc(COc2ccc(N3CCN(c4ccc(OC(F)(F)F)cc4)CC3)cc2/C=C/C(=O)O)cc1 [Compound 418]
[1]
  Inhibition Rate of PAI-1 Activity (%): 73%
[2]
  Inhibition Rate of PAI-1 Activity (%): 95%
[3]
  Inhibition Rate of PAI-1 Activity (%): 94%
[4]
  Inhibition Rate of PAI-1 Activity (%): 90%

## O=C(O)C(=O)N(Cc1ccc(-c2ccc(OC(F)(F)F)cc2)cc1)c1ccccc1-c1ccccc1 [Compound 632]
[5]
  Inhibition Rate of PAI-1 Activity (%): 0%
[6]
  Inhibition Rate of PAI-1 Activity (%): 9%
[1]
  Inhibition Rate of PAI-1 Activity (%): 31%
[2]
  Inhibition Rate of PAI-1 Activity (%): 97%

## CCCCCCOc1ccc(-c2ccc(OC(F)(F)F)cc2)cc1N(CCCCc1ccccc1)C(=O)C(=O)O [Compound 652]
[5]
  Inhibition Rate of PAI-1 Activity (%): 19%
[6]
  Inhibition Rate of PAI-1 Activity (%): 22%
[1]
  Inhibition Rate of PAI-1 Activity (%): >99%
[2]
  Inhibition Rate of PAI-1 Activity (%): >99%

## O=C(O)C(=O)N(CCCCc1ccccc1)c1cc(-c2ccc(OC(F)(F)F)cc2)ccc1Oc1ccccc1 [Compound 638]
[5]
  Inhibition Rate of PAI-1 Activity (%): 5%
[6]
  Inhibition Rate of PAI-1 Activity (%): 15%
[1]
  Inhibition Rate of PAI-1 Activity (%): 57%
[2]
  Inhibition Rate of PAI-1 Activity (%): >99%

## O=C(O)C(=O)N(CCCCc1ccccc1)c1cc(-c2ccc(OC(F)(F)F)cc2)ccc1OC1CCCCC1 [Compound 368]
  IC50: 450 nM

## CC(C)(C)c1ccc(Oc2cc(-c3cccc([N+](=O)[O-])c3)ccc2OCC(=O)O)cc1 [Compound 485]
[5]
  Inhibition Rate of PAI-1 Activity (%): 0%
[6]
  Inhibition Rate of PAI-1 Activity (%): 6%
[1]
  Inhibition Rate of PAI-1 Activity (%): 11%
[2]
  Inhibition Rate of PAI-1 Activity (%): 69%

## O=C(O)C(=O)N(CCCCc1ccccc1)c1ccc(N2CCSCC2)c(-c2ccc(OC(F)(F)F)cc2)c1 [Compound 675]
[5]
  Inhibition Rate of PAI-1 Activity (%): 10%
[6]
  Inhibition Rate of PAI-1 Activity (%): 14%
[1]
  Inhibition Rate of PAI-1 Activity (%): 95%
[2]
  Inhibition Rate of PAI-1 Activity (%): >99%

## CCCCCOc1cc(-c2ccc(OC(F)(F)F)cc2)cc(OCCCCC)c1OCC(=O)O [Compound 424]
[5]
  Inhibition Rate of PAI-1 Activity (%): 0%
[6]
  Inhibition Rate of PAI-1 Activity (%): 4%
[1]
  Inhibition Rate of PAI-1 Activity (%): 38%
[2]
  Inhibition Rate of PAI-1 Activity (%): >99%

## CSc1ccc(-c2ccc(OCC(=O)O)c(Oc3ccc(C(C)(C)C)cc3)c2)cc1 [Compound 448]
[5]
  Inhibition Rate of PAI-1 Activity (%): 4%
[6]
  Inhibition Rate of PAI-1 Activity (%): 11%
[1]
  Inhibition Rate of PAI-1 Activity (%): 39%
[2]
  Inhibition Rate of PAI-1 Activity (%): >99%

## CCCCOc1ccc(Oc2cc(-c3ccc(OC(F)(F)F)cc3)ccc2CCC(=O)O)cc1 [Compound 461]
[5]
  Inhibition Rate of PAI-1 Activity (%): 1%
[6]
  Inhibition Rate of PAI-1 Activity (%): 26%
[1]
  Inhibition Rate of PAI-1 Activity (%): 95%
[2]
  Inhibition Rate of PAI-1 Activity (%): 98%

## CCCCCN(C(=O)C(=O)O)c1cc(-c2ccc(OC(F)(F)F)cc2)ccc1OCCCCc1ccccc1 [Compound 358]
[7]
  IC50: 900 nM

## CCCCCOc1cc(-c2cccc(C)c2)ccc1N(CCCCc1ccccc1)C(=O)C(=O)O [Compound 376]
  IC50: 790 nM

## CCCCc1ccc(Oc2cc(-c3ccc(OC(F)(F)F)cc3)ccc2/C=C/C(=O)O)cc1 [Compound 511]
[5]
  Inhibition Rate of PAI-1 Activity (%): 11%
[6]
  Inhibition Rate of PAI-1 Activity (%): 68%
[1]
  Inhibition Rate of PAI-1 Activity (%): >99%
[2]
  Inhibition Rate of PAI-1 Activity (%): >99%

## CC(C)(C)c1ccc(Oc2cc(-c3cc(Cl)ccc3Cl)ccc2OCC(=O)O)cc1 [Compound 455]
[5]
  Inhibition Rate of PAI-1 Activity (%): 9%
[6]
  Inhibition Rate of PAI-1 Activity (%): 20%
[1]
  Inhibition Rate of PAI-1 Activity (%): 93%
[2]
  Inhibition Rate of PAI-1 Activity (%): 99%

## CCCCCOc1ccc(-c2ccccc2)cc1N(CCCCc1ccccc1)C(=O)C(=O)O [Compound 360]
  IC50: 1590 nM

## CC(C)c1ccc(Oc2cc(-c3ccc(OC(F)(F)F)cc3)ccc2OCC(=O)O)cc1 [Compound 333]
[7]
  IC50: 1720 nM

## CCCCCOc1ccc(-c2ccc(OC(F)(F)F)cc2)cc1N(CCCCc1ccccc1)CC(=O)O [Compound 640]
[5]
  Inhibition Rate of PAI-1 Activity (%): 0%
[6]
  Inhibition Rate of PAI-1 Activity (%): 19%
[1]
  Inhibition Rate of PAI-1 Activity (%): 92%
[2]
  Inhibition Rate of PAI-1 Activity (%): 92%

## O=C(O)CCc1ccc(-c2ccc(OC(F)(F)F)cc2)cc1OCCCSc1ccccc1 [Compound 508]
[5]
  Inhibition Rate of PAI-1 Activity (%): 18%
[6]
  Inhibition Rate of PAI-1 Activity (%): 9%
[1]
  Inhibition Rate of PAI-1 Activity (%): 48%
[2]
  Inhibition Rate of PAI-1 Activity (%): 98%

## CC(C)(C)c1ccc(Oc2cc(-c3ccc(OC(F)(F)F)cc3)ccc2CCCC(=O)O)cc1 [Compound 527]
[5]
  Inhibition Rate of PAI-1 Activity (%): 6%
[6]
  Inhibition Rate of PAI-1 Activity (%): 36%
[1]
  Inhibition Rate of PAI-1 Activity (%): 98%
[2]
  Inhibition Rate of PAI-1 Activity (%): >99%

## CC(Oc1cc(-c2ccc(OC(F)(F)F)cc2)ccc1CCC(=O)O)c1ccccc1 (centres unmarked) [Compound 501]
[5]
  Inhibition Rate of PAI-1 Activity (%): 12%
[6]
  Inhibition Rate of PAI-1 Activity (%): 0%
[1]
  Inhibition Rate of PAI-1 Activity (%): 12%
[2]
  Inhibition Rate of PAI-1 Activity (%): 83%

## CCCCCCCOc1ccc(-c2ccc(OC(F)(F)F)cc2)cc1N(CCCCc1ccccc1)C(=O)C(=O)O [Compound 352]
[7]
  IC50: 740 nM

## CCCCCOc1ccc(-c2ccc(Cl)cc2)cc1N(CCCCc1ccccc1)C(=O)C(=O)O [Compound 361]
  IC50: 830 nM

## O=C(O)/C=C/c1ccc(-c2ccc(OC(F)(F)F)cc2)cc1OCCCSc1ccccc1 [Compound 489]
[5]
  Inhibition Rate of PAI-1 Activity (%): 12%
[6]
  Inhibition Rate of PAI-1 Activity (%): 14%
[1]
  Inhibition Rate of PAI-1 Activity (%): 69%
[2]
  Inhibition Rate of PAI-1 Activity (%): >99%

## CC(C)(C)c1ccc(Sc2cc(-c3ccc(OC(F)(F)F)cc3)ccc2CCC(=O)O)cc1 [Compound 517]
[5]
  Inhibition Rate of PAI-1 Activity (%): 20%
[6]
  Inhibition Rate of PAI-1 Activity (%): 50%
[1]
  Inhibition Rate of PAI-1 Activity (%): 95%
[2]
  Inhibition Rate of PAI-1 Activity (%): >99%

## CC(C)(C)c1ccc(Oc2cc(-c3cccc(C(F)(F)F)c3)ccc2OCC(=O)O)cc1 [Compound 315]
[7]
  IC50: 850 nM
  inhibition at 3 µM: > 99%

## CCCCCOc1ccc(-c2cccc(C(F)(F)F)c2)cc1N(CCCCc1ccccc1)C(=O)C(=O)O [Compound 378]
  IC50: 620 nM

## CCCCCOc1cc(Oc2ccc(OC(F)(F)F)cc2)ccc1N(CCCCc1ccccc1)C(=O)C(=O)O [Compound 362]
  IC50: 840 nM
  inhibition at 3 µM: > 99%

## CC(C)(C)c1ccc(Oc2cc(-c3cccc(OC(F)(F)F)c3)ccc2OCC(=O)O)cc1 [Compound 331]
[7]
  IC50: 790 nM

## CC(C)(C)c1ccc(-c2ccc(/C=C/C(=O)O)c(Oc3ccc(OC(F)(F)F)cc3)c2)cc1 [Compound 478]
[5]
  Inhibition Rate of PAI-1 Activity (%): 11%
[6]
  Inhibition Rate of PAI-1 Activity (%): 33%
[1]
  Inhibition Rate of PAI-1 Activity (%): 90%
[2]
  Inhibition Rate of PAI-1 Activity (%): >99%

## CCCCC1CCC(Oc2ccc(-c3ccc(OC(F)(F)F)cc3)cc2N(CCCCc2ccccc2)C(=O)C(=O)O)CC1 (centres unmarked) [Compound 637]
[5]
  Inhibition Rate of PAI-1 Activity (%): 0%
[6]
  Inhibition Rate of PAI-1 Activity (%): 5%
[1]
  Inhibition Rate of PAI-1 Activity (%): 80%
[2]
  Inhibition Rate of PAI-1 Activity (%): 71%

## CC(C)(C)c1ccc(Oc2cc(-c3ccc(Cl)cc3)ccc2OCC(=O)O)cc1 [Compound 457]
[5]
  Inhibition Rate of PAI-1 Activity (%): 21%
[6]
  Inhibition Rate of PAI-1 Activity (%): 18%
[1]
  Inhibition Rate of PAI-1 Activity (%): 63%
[2]
  Inhibition Rate of PAI-1 Activity (%): >99%
